Data from patent publication US11925616B2, “Compositions comprising urolithin compounds” (Amazentis SA, priority 2015, dated 2024).

Experiments:
in vivo = assay: in vivo; set-up: species or system male Sprague-Dawley rats; settings: male, Sprague-Dawley, rat, po, 25 mg/kg
Procedure: The solutions for gavage were prepared as follows: 35 mg of urolithin A powder was diluted in 7 ml of 15% DMSO, 0.5% methyl cellulose/0.25% Tween 80 in water, resulting in a 5 mg/ml fine suspension. The DMSO was obtained from BDH, methyl cellulose was obtained from Sigma, and Tween 80 was obtained from Sigma-Aldrich.
Blood was collected from the rats by jugular vein cannulation at different time points, and urolithin A was quantified in the plasma to determine its pharmacokinetic profile following oral gavage of Sample #1, Sample #2, and Sample #3. The study was repeated on three rats for each sample. […]

[1] = Particle size determinations for urolithin A; type: physicochemical; settings: for D10 / D50 / D90: Malvern Particle Size analyzer, before and after micronization
Procedure: The particle size of urolithin A was reduced in a controlled manner using an MC50 Spiral Jetmill, using filtered nitrogen, with a feed rate of 240 g/hr, a Venturi pressure of 12 bar, and a mill pressure of 12 bar. Different particle size distributions of urolithin A were determined on a Malvern Particle Size analyzer (Malvern Instruments, UK). Three samples were evaluated in depth.

myotubes = settings: in vitro; cited from earlier work
[2] = micronized urolithin used in the formulations of Example 1

Cmax (in vivo) [ng/mL] | Relative Cmax (% of non-micronized Cmax) (in vivo) [%] | Relative bioavailability (% AUC of non-micronized urolithin A) (in vivo) [%] | AUC (in vivo; AUC) [ng·h/mL] | Tmax (in vivo; Tmax (h)) [min] | D10 [1] [μm] | D50 [1] [μm] | D90 [1] [μm] | AUC (in vivo) [ng·h/mL] | Tmax (in vivo) [min] | fold increase in the Cmax in comparison to Sample #1 (in vivo) [fold] | increase in the AUC in comparison to Sample #1 (in vivo) [%] | relative increase in the Cmax in comparison to Sample #1 (in vivo) [%] | D10, actual particle size [1, 2] [μm] | D50, actual particle size [1, 2] [μm] | D90, actual particle size [1, 2] [μm] | SMILES | effect on mean diameter of myotubes (myotubes)
17.4 | 102 | 126 | – | – | 0.597 | 5.67 | 40.1 | 94.8 | 30 | – | 26 | – | – | – | – | O=c1oc2cc(O)ccc2c2ccc(O)cc12 [Sample #3, Urolithin A] | –
– | – | – | – | – | – | – | – | – | – | – | – | – | 0.7 | 3.9 | 11.5 | O=c1oc2cc(O)ccc2c2ccc(O)cc12 [Urolithin A] | not seen

The remaining lines, values behind:

SMILES | Cmax (in vivo) [ng/mL] | Relative Cmax (% of non-micronized Cmax) (in vivo) [%] | Relative bioavailability (% AUC of non-micronized urolithin A) (in vivo) [%] | AUC (in vivo; AUC) [ng·h/mL] | Tmax (in vivo; Tmax (h)) [min] | D10 [1] [μm] | D50 [1] [μm] | D90 [1] [μm] | AUC (in vivo) [ng·h/mL] | Tmax (in vivo) [min] | fold increase in the Cmax in comparison to Sample #1 (in vivo) [fold] | increase in the AUC in comparison to Sample #1 (in vivo) [%] | relative increase in the Cmax in comparison to Sample #1 (in vivo) [%] | D10, actual particle size [1, 2] [μm] | D50, actual particle size [1, 2] [μm] | D90, actual particle size [1, 2] [μm] | effect on mean diameter of myotubes (myotubes)
O=c1oc2cc(O)ccc2c2ccc(O)cc12 [Sample #1, Urolithin A] | 17.1 | 100 | 100 | 75.1 | 15 | 1.03 | 53.4 | 365 | – | – | – | – | – | – | – | – | –
O=c1oc2cc(O)ccc2c2ccc(O)cc12 [Sample #2, Urolithin A] | 37 | 216 | 128 | – | – | 0.272 | 2.17 | 6.84 | 96.2 | 19.8 | 2.16 | 28 | 116 | – | – | – | –
O=c1oc2cc(O)ccc2c2ccccc12 [Urolithin B] | – | – | – | – | – | – | – | – | – | – | – | – | – | – | – | – | increased the mean diameter of myotubes
